# Results as given in patent US20180203025A1, “HDL THERAPY MARKERS” (Cerenis Therapeutics Holding SA, priority 2014, published 2018).
# Tests used:
# [1] = system: ABCG1 mRNA in mouse macrophages (J774); assay: ABCG1 gene expression (real-time PCR) in J774 macrophages; assay type: cell-based
# Experimental: J774 were seeded on 6 well plates (300,000 cells/well) and loaded with oxidized-LDL without the use of ^3H-cholesterol. […] Gene expression was assayed using the protocols described in Sections 8.3.2 (RNA extraction); 8.3.4 (reverse transcription), and 8.3.5 (qPCR). ABCG1 gene expression was determined with Taqman probe Mm00437390.m1 according to the manufacturer's protocol. The reference gene used is HPRT1 (Taqman probe: Mm00446968.m1).
# (§1) J774 were seeded on 6 well plates (300,000 cells/well) and loaded with oxidized-LDL. […] Gene expression was assayed using the protocols described in Sections 8.3.2 (RNA extraction); 8.3.4 (reverse transcription), and 8.3.5 (qPCR). SR-BI gene (Taqman probe Mm00450234.m1), ABCG1 (Taqman probe Mm00437390.m1), SREBP1 (Taqman probe Mm01138344.m1) and ABCA1 (Taqman probe Mm00442646.m1) expression were determined according to the manufacturer's protocol. The reference gene used is HPRT1 (Taqman probe: Mm00446968.m1).
# as §1, with “(qPCR).” for “(qPCR). SR-BI gene (Taqman probe Mm00450234.m1),”, “Mm00437390.m1)” for “Mm00437390.m1), SREBP1 (Taqman probe Mm01138344.m1)”
# as §1, with “(qPCR).” for “(qPCR). SR-BI gene (Taqman probe Mm00450234.m1),”, “Mm00437390.m1)” for “Mm00437390.m1), SREBP1 (Taqman probe Mm01138344.m1)”
# J774 were seeded on 6 well plates (600,000 cells/well) in DMEM 10% FCS. […] Medium was removed and the macrophages were washed with DMEM. […] Gene expression was assayed using the protocols described in Sections 8.3.2 (RNA extraction); 8.3.4 (reverse transcription), and 8.3.5 (qPCR). ABCG1 (Taqman probe Mm00437390.m1), ABCA1 (Taqman probe Mm00442646.m1) and SR-BI (Taqman probe Mm00450234.m1) expression were determined according to the manufacturer's protocol. The reference gene used is HPRT1 (Taqman probe: Mm00446968.m1).
# J774 were seeded on 6 well plates (300,000 cells/well) in DMEM 2.5% FCS. […] The next day, medium was replaced by fresh DMEM supplemented with or without ApoA-I (25 or 250 μg/mL) to initiate ApoA-I cholesterol efflux for 2 hours. The experiment was stopped at different time points: 1) J774 stopped before addition of ApoA-I, 2) J774+DMEM (passive efflux for 2 hours), 3) J774+ApoA-I (25 μg/mL) for 2 hours and 4) J774+ApoA-I (250 μg/mL) for 2 hours. The RNA was extracted with the RiboPure™ kit according to the manufacturer's protocol. Gene expression was assayed using the protocols described in Sections 8.3.2 (RNA extraction); 8.3.4 (reverse transcription), and 8.3.5 (qPCR). ABCA1 (Taqman probe Mm00442646.m1), ABCG1 (Taqman probe Mm00437390.m1), and SR-BI (Taqman probe Mm00450234.m1) expression were determined according to the manufacturer's protocol. The reference gene used is HPRT1 (Taqman probe: Mm00446968.m1).
# This study examined the effect of HDL2 on ABCA1, ABCG1 and SR-BI mRNA levels in mouse macrophages. […] J774 were seeded on 6 well plates (300,000 cells/well) and loaded with oxidized-LDL. HDL2 (from 2.5 to 1000 μg/mL) were added for 6 hours on the macrophages and the RNA were extracted with the RiboPure™ kit according to the manufacturer's protocol. Gene expression was assayed using the protocols described in Sections 8.3.2 (RNA extraction); 8.3.4 (reverse transcription), and 8.3.5 (qPCR). ABCA1 (Taqman probe Mm00442646.m1), ABCG1 (Taqman probe Mm00437390.m1) and SR-BI (Taqman probe Mm00450234.m1) gene expression were determined according to the manufacturer protocols.
# [2] = system: SREBP-1 mRNA in mouse macrophages (J774); assay: SREBP-1 gene expression (real-time PCR) in J774 macrophages; assay type: cell-based; settings: 6 hours
# Experimental: The mRNA regulation of those genes expressing ABCA1, ABCG1 and SR-BI is linked to nuclear proteins as LXR, SREBP1 and SREBP2. […] Gene expression was assayed using the protocols described in Sections 8.3.2 (RNA extraction); 8.3.4 (reverse transcription), and 8.3.5 (qPCR). SREBP-1, SREBP-2 and LXR gene expression levels were determined with Taqman probe (Mm01138344.m1, Mm01306292.m1, Mm00443451.m1 respectively) according to the manufacturer's protocol. The reference gene used is HPRT1 (Taqman probe: Mm00446968.m1).
# as §1
# This study used β-cyclodextrin to examine the effect of β-cyclodextrin on LXR, SREBP1 and SREBP2 mRNA expression in J774 macrophages. J774 were seeded on 6 well plates (300,000 cells/well). β-cyclodextrin (0.03, 0.1, 0.3, 1, 3, 10 and 30 mM) was added for 6 hours on the macrophages and the RNA were extracted with the RiboPure™ kit according to the manufacturer's protocol. Gene expression was assayed using the protocols described in Sections 8.3.2 (RNA extraction); 8.3.4 (reverse transcription), and 8.3.5 (qPCR). SREBP-1, SREBP-2 and LXR gene expression were determined with Taqman probe (Mm01138344.m1, Mm01306292.m1, Mm00443451.m1 respectively) according to the manufacturer's protocol. The reference gene used is HPRT1 (Taqman probe: Mm00446968.m1).
Compound,"ABCG1 mRNA level ([1]; Study O, 0.03 to 30 mM, 6 hours)","SREBP-1 mRNA ([2]; Study P, 0.03 to 30 mM)","ABCG1 mRNA expression ([1]; Study B, oxidized-LDL loaded, 25, 250 and 1000 μg/mL, 6 hours)","ABCG1 mRNA level ([1]; Study G, 250 μg/mL, 6 hours, without cAMP)","ABCG1 mRNA level (RQ) ([1]; Study G, overnight cAMP 300 μM, then 250 μg/mL 6 hours)","dose of maximum decrease of ABCG1 mRNA level ([1]; Study I, 6 hours)","doses at which decrease of ABCG1 mRNA level was observed ([1]; Study I, 6 hours, presence or absence of cAMP) [µg/mL]","ABCG1 mRNA level ([1]; Study J, 24 hours treatment, 250 μg/mL)","time for ABCG1 mRNA level to return to baseline after removal ([1]; Study J, after 24 hours at 250 μg/mL) [h]","SREBP-1 gene expression ([2]; Study D, 25, 250 and 1000 μg/mL)",concentration above which SREBP1 decrease and plateau observed ([2]; Study E)
"OC[C@H]1O[C@@H]2O[C@H]3[C@H](O)[C@@H](O)[C@@H](O[C@H]4[C@H](O)[C@@H](O)[C@@H](O[C@H]5[C@H](O)[C@@H](O)[C@@H](O[C@H]6[C@H](O)[C@@H](O)[C@@H](O[C@H]7[C@H](O)[C@@H](O)[C@@H](O[C@H]8[C@H](O)[C@@H](O)[C@@H](O[C@H]1[C@H](O)[C@H]2O)O[C@@H]8CO)O[C@@H]7CO)O[C@@H]6CO)O[C@@H]5CO)O[C@@H]4CO)O[C@@H]3CO [β-cyclodextrin, reference compound]",dose-dependent decrease,dose-dependent decrease,,,,,,,,,
"CER-001: engineered recombinant human apolipoprotein A-I HDL with sphingomyelin and DPPG; protein-to-phospholipid ratio 1:2.7, 97% Sph and 3% DPPG",,,decreased the ABCG1 mRNA at all the doses,decreased,1,around 15 μg/mL,4 to 6,decrease,8,affected SREBP-1 mRNA levels,above 2.5 μg/mL
